Data taken from US11919885B1, “4-(4-bromophenyl)-2-alkyloxy-6-(2-oxo-2H-1-benzopyran-3-yl)pyridine-3-carbonitrile as antimicrobial compounds” (KING FAISAL UNIVERSITY, priority 2023, dated 2024).

Experiments:
Format in all cases: cell-based
Escherichia coli = experiment: Agar plate disc-diffusion, antibacterial activity (inhibition zone); details: nutrient agar, 37° C., 48 h, DMSO control zone subtracted; for inhibition zone, Escherichia coli, A: A = concentration of comp. = 10,000 μL; for inhibition zone, Escherichia coli, B: B = concentration of comp. = 30.000 μL; for inhibition zone, Escherichia coli, C: C = concentration of comp. = 50,000 μL
Protocol: (§1) The agar plate disc-diffusion method was applied. Sterilized filter papers (6 mm in diameter) were wetted with 10 μL of a solution of 4-(4-Bromophenyl)-2-ethoxy-6-(2-oxo-2H-1-benzopyran-3-yl)-4-phenylpyridine-3-carbonitrile (1) or 4-(4-Bromophenyl)-2-methoxy-6-(2-oxo-2H-1-benzopyran-3-yl)-4-phenylpyridine-3-carbonitrile (2) to be tested, containing […], and the discs were allowed to air dry. The discs were then placed onto the surface of agar plates (nutrient agar for bacteria and Sabouraud's dextrose agar for fungi) seeded with the test organism. Each plate contained 15 mL of the agar medium, previously seeded with 0.2 mL of the broth culture of each organism pregrown for 18 hours. The plates were incubated at 37° C. for 48 h, and 72 h for fungi. The inhibition zones were measured in mm. Discs impregnated with DMSO were used as a control, and its inhibition zone was subtracted from the tested compound actual inhibition zone.
(§2) The results of the antimicrobial testing can be observed in Tables 1 and 2, below, using ciprofloxacin as a reference.

Staphylococcus aureus = experiment: as above; details: nutrient agar, 37° C., 48 h, DMSO control zone subtracted; for inhibition zone, Staphylococcus aureus, A: A = concentration of comp. = 10,000 μL; for inhibition zone, Staphylococcus aureus, B: B = concentration of comp. = 30.000 μL; for inhibition zone, Staphylococcus aureus, C: C = concentration of comp. = 50,000 μL
Protocol: as §1, §2

Bacillus cereus = experiment: as above; details: nutrient agar, 37° C., 48 h, DMSO control zone subtracted; for inhibition zone, Bacillus Cereus, A: A = concentration of comp. = 10,000 μL; for inhibition zone, Bacillus Cereus, B: B = concentration of comp. = 30.000 μL; for inhibition zone, Bacillus Cereus, C: C = concentration of comp. = 50,000 μL
Protocol: as §1, §2

Pseudomonas aeruginosa = experiment: as above; details: nutrient agar, 37° C., 48 h, DMSO control zone subtracted; for inhibition zone, Pseudomonas aeruginosa, A: A = concentration of comp. = 10,000 μL; for inhibition zone, Pseudomonas aeruginosa, B: B = concentration of comp. = 30.000 μL; for inhibition zone, Pseudomonas aeruginosa, C: C = concentration of comp. = 50,000 μL
Protocol: as §1, §2

[1] = test system: Chrysosporium keratinophilum; experiment: Agar plate disc-diffusion, antifungal activity (inhibition zone); details: Sabouraud's dextrose agar, 37° C., 72 h, DMSO control zone subtracted; for inhibition zone, Chrysosporium keratinophilum, A: A = concentration of comp. = 10,000 μL; for inhibition zone, Chrysosporium keratinophilum, B: B = concentration of comp. = 30.000 μL; for inhibition zone, Chrysosporium keratinophilum, C: C = concentration of comp. = 50,000 μL
Protocol: as §1, §2

Aspergillus flavus = experiment: as above; details: Sabouraud's dextrose agar, 37° C., 72 h, DMSO control zone subtracted; for inhibition zone, Aspergillus flavus, A: A = concentration of comp. = 10,000 μL; for inhibition zone, Aspergillus flavus, B: B = concentration of comp. = 30.000 μL; for inhibition zone, Aspergillus flavus, C: C = concentration of comp. = 50,000 μL
Protocol: as §1, §2

SMILES	inhibition zone, Escherichia coli, A (Escherichia coli) [mm]	inhibition zone, Escherichia coli, B (Escherichia coli) [mm]	inhibition zone, Escherichia coli, C (Escherichia coli) [mm]	inhibition zone, Staphylococcus aureus, A (Staphylococcus aureus) [mm]	inhibition zone, Staphylococcus aureus, B (Staphylococcus aureus) [mm]	inhibition zone, Staphylococcus aureus, C (Staphylococcus aureus) [mm]	inhibition zone, Bacillus Cereus, A (Bacillus cereus) [mm]	inhibition zone, Bacillus Cereus, B (Bacillus cereus) [mm]	inhibition zone, Bacillus Cereus, C (Bacillus cereus) [mm]	inhibition zone, Pseudomonas aeruginosa, A (Pseudomonas aeruginosa) [mm]	inhibition zone, Pseudomonas aeruginosa, B (Pseudomonas aeruginosa) [mm]	inhibition zone, Pseudomonas aeruginosa, C (Pseudomonas aeruginosa) [mm]	inhibition zone, Chrysosporium keratinophilum, A [1] [mm]	inhibition zone, Chrysosporium keratinophilum, B [1] [mm]	inhibition zone, Chrysosporium keratinophilum, C [1] [mm]	inhibition zone, Aspergillus flavus, A (Aspergillus flavus) [mm]	inhibition zone, Aspergillus flavus, B (Aspergillus flavus) [mm]	inhibition zone, Aspergillus flavus, C (Aspergillus flavus) [mm]
O=C(O)c1cn(C2CC2)c2cc(N3CCNCC3)c(F)cc2c1=O [Cip., ciprofloxacin, reference compound]	30	39	60	43	44	53	29	30	42	29	30	53	29	30	53	29	30	42
CCOc1nc(-c2cc3ccccc3oc2=O)cc(-c2ccc(Br)cc2)c1C#N [Compound 1, 4-(4-Bromophenyl)-2-ethoxy-6-(2-oxo-2H-1-benzopyran-3-yl)pyridine-3-carbonitrile]	30	40	50	20	25	35	30	34	40	25	30	39	24	29	42	28	30	41
COc1nc(-c2cc3ccccc3oc2=O)cc(-c2ccc(Br)cc2)c1C#N [Compound 2, 4-(4-Bromophenyl)-2-methoxy-6-(2-oxo-2H-1-benzopyran-3-yl)pyridine-3-carbonitrile]	29	37	48	15	22	30	25	32	37	27	33	40	25	28	40	20	21	31
